Results published in article PMC12504763, “Antiproliferation, 3D-multicellular spheroid and VEGFR-2 inhibitory properties of spiroindolin-2-ones with phosphonate function” (Scientific Reports, 2025).
Like-named read-outs stand apart in the source and are kept apart here.

Legend:
[1] = system: HCT116 (colon) cancer cell line; assay: 2D-monolayer antiproliferation (MTT) against HCT116; assay type: cell-based, human; details: for IC50: Homo sapiens, HCT-116; for SI (selectivity index) HCT116: IC50 of RPE1 normal cell/IC50 of HCT116
VEGFR-2 [2] = target: T1, VEGFR-2 (Homo sapiens, UniProt P35968); assay: cell-based; assay type: cell-based; details: for inhibition at 10 µM: HCT-116, HCT116; for VEGFR-2 pg/mL ± SEM HCT116: at 10 μM, control 317.80 ± 3.5
T1 construct: endogenous in cells; host or cells: HCT116, PaCa2, MCF7 (human cancer cell lines, ATCC origin)

TNF-α [3] = assay: TNF-α inhibitory properties (ELISA), MCF7 cell lysate; assay type: cell-based, human; details: at 10 μM; for TNF-α pg/mL (± SEM) MCF7: control 83.26 ± 1.1
VEGFR-2 [4] = target: T1, VEGFR-2; assay: cell-based; assay type: cell-based; details: for inhibition at 10 µM: PaCa-2, PaCa2; for VEGFR-2 pg/mL ± SEM PaCa2: at 10 μM, control 326.80 ± 1.9
[5] = system: RPE1 (normal human immortalized retinal pigment epithelial cell line); assay: cells; assay type: cell-based; details: Homo sapiens, RPE-1; MTT, normal RPE1 cell; read-out: IC50, μM ± SEM RPE1
COX-1 = target: T2, COX-1 (Ovis aries, UniProt P05979); assay: biochemical; details: 3 replicates, read-out: % Inhibition of COX-1 ± SEM
T2 construct: purchased BioVision incorporated USA K548–100
T2 sequence (P05979 25-600): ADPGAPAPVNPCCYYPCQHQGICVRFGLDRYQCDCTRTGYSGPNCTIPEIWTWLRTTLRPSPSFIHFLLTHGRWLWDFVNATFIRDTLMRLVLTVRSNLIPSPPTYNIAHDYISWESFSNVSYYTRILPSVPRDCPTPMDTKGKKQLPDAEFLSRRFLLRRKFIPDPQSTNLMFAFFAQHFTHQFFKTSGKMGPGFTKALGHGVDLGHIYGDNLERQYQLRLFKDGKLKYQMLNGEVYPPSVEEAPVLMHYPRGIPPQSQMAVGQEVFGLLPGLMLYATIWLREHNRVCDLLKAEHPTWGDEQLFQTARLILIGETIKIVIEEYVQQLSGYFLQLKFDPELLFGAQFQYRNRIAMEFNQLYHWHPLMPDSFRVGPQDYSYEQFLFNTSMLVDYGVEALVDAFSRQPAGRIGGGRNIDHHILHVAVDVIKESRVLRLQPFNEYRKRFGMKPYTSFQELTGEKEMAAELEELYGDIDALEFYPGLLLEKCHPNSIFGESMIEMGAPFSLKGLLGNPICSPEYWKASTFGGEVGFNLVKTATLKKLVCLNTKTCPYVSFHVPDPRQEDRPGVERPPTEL

VEGFR-2 [6] = target: T1, VEGFR-2; assay: cell-based; assay type: cell-based; details: for inhibition at 10 µM: MCF7; for VEGFR-2 pg/mL ± SEM MCF7: at 10 μM, control 258.70 ± 2.3
[7] = system: A549 (lung) cancer cell line; assay: 2D-monolayer antiproliferation (MTT) against A549; assay type: cell-based, human; details: for IC50: Homo sapiens, MTT, 72 h incubation, A549 lung, read-out: IC50, μM ± SEM A549; for SI (selectivity index) A549: IC50 of RPE1 normal cell/IC50 of A549
COX-2 = target: T3, COX-2 (Homo sapiens, UniProt P35354); assay: biochemical; details: for inhibition at 10 µM: 3 replicates, read-out: % Inhibition of COX-2 ± SEM; for SI (selectivity index, COX-2/COX-1): at 10 μM
T3 construct: purchased BioVision incorporated USA K548–100
T3 sequence (P35354 18-604): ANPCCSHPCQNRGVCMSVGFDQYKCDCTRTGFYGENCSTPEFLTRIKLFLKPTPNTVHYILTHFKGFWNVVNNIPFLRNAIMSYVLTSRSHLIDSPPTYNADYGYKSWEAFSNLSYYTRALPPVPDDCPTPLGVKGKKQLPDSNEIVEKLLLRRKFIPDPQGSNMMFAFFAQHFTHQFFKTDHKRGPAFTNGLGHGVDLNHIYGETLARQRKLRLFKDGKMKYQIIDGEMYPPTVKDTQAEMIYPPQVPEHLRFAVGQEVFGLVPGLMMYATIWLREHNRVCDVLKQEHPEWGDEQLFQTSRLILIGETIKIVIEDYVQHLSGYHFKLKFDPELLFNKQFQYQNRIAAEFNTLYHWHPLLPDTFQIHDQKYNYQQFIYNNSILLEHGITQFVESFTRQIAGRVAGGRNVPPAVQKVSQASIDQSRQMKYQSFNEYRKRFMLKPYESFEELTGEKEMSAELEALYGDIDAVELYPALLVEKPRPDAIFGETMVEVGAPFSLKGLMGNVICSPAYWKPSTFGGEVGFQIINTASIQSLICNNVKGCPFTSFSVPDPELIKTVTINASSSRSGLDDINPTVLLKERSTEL

[8] = system: PaCa2 (pancreatic) cancer cell line; assay: 2D-monolayer antiproliferation (MTT) against PaCa2; assay type: cell-based, human; details: for IC50: Homo sapiens, PaCa-2, MTT, 72 h incubation, PaCa2 pancreatic, read-out: IC50, μM ± SEM PaCa2; for SI (selectivity index) PaCa2: IC50 of RPE1 normal cell/IC50 of PaCa2
TNF-α [9] = assay: TNF-α inhibitory properties (ELISA), PaCa2 cell lysate; assay type: cell-based, human; details: at 10 μM; for TNF-α pg/mL (± SEM) PaCa2: control 111.8 ± 2.0
TNF-α [10] = assay: TNF-α inhibitory properties (ELISA), HCT116 cell lysate; assay type: cell-based, human; details: for TNF-α % inhibition HCT116 / TNF-α pg/mL (± SEM) HCT116: at 10 μM; for TNF-α pg/mL (± SEM) HCT116: control 95.74 ± 0.5
[11] = system: MCF7 (breast) cancer cell line; assay: 2D-monolayer antiproliferation (MTT) against MCF7; assay type: cell-based, human; details: for IC50: Homo sapiens, MTT, 72 h incubation, MCF7 breast, read-out: IC50, μM ± SEM MCF7; for SI (selectivity index) MCF7: IC50 of RPE1 normal cell/IC50 of MCF7
[12] = MTT, 72 h incubation, HCT116 colon, read-out: IC50, μM ± SEM HCT116
[13] = log of observed IC50 (μM), HCT116, read-out: Log(observed property) (converted)

T1 sequence (P35968 20-1356): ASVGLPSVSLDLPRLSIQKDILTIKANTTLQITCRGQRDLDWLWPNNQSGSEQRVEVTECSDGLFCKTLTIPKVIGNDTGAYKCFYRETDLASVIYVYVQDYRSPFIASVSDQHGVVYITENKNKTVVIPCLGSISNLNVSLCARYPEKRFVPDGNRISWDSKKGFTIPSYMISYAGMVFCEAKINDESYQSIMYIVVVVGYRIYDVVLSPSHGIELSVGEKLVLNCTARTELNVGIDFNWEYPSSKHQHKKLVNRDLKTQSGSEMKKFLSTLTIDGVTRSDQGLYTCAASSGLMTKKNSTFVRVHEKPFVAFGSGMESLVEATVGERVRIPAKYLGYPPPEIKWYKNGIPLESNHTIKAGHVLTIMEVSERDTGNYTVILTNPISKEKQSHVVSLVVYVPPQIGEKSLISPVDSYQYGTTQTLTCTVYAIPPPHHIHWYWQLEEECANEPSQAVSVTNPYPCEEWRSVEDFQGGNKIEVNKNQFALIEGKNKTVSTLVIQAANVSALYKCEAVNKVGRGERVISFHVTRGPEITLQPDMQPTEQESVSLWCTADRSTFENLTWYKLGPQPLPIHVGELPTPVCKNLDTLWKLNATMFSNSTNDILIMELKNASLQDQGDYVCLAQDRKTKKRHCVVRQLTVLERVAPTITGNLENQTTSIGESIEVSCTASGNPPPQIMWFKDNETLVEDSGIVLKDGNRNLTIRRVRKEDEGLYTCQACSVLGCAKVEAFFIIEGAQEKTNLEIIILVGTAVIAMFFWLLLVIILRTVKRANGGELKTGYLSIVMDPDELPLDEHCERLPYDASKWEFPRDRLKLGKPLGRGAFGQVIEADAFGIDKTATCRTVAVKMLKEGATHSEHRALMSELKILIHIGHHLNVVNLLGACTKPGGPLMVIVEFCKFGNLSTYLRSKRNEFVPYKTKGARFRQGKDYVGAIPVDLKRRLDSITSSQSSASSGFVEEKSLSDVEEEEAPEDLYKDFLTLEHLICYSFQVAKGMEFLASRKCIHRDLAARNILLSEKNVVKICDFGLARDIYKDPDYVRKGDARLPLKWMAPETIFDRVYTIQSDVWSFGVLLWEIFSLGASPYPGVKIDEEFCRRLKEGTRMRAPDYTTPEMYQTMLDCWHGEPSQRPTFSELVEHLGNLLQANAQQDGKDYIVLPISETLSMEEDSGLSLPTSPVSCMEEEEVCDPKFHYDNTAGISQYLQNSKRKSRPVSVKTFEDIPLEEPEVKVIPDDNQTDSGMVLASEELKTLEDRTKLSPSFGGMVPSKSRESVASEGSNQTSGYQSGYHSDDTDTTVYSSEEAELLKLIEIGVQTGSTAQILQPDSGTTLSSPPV

SMILES	IC50 [1, 12] [µM]	IC50 [1, 13] [µM]	SI (selectivity index) HCT116 [1]	inhibition at 10 µM (VEGFR-2 [2]) [%]	VEGFR-2 pg/mL ± SEM HCT116 (VEGFR-2 [2]) [pg/mL]	TNF-α % inhibition MCF7 (TNF-α [3]) [%]	TNF-α pg/mL (± SEM) MCF7 (TNF-α [3]) [pg/mL]	inhibition at 10 µM (VEGFR-2 [4]) [%]	VEGFR-2 pg/mL ± SEM PaCa2 (VEGFR-2 [4]) [pg/mL]	IC50 [5] [µM]	inhibition at 10 µM (COX-1) [%]	inhibition at 10 µM (VEGFR-2 [6]) [%]	VEGFR-2 pg/mL ± SEM MCF7 (VEGFR-2 [6]) [pg/mL]	IC50 [7] [µM]	SI (selectivity index) A549 [7]	inhibition at 10 µM (COX-2) [%]	SI (selectivity index, COX-2/COX-1) (COX-2)	IC50 [8] [µM]	SI (selectivity index) PaCa2 [8]	TNF-α % inhibition PaCa2 (TNF-α [9]) [%]	also measured
CCOP(=O)(OCC)N1C/C(=C\c2ccc(Cl)cc2)C(=O)C2(C1)C(c1ccc(Cl)cc1)CN(C)C21C(=O)Nc2ccccc21 (stereo not shown) [Compound 17h, Diethyl (E)-[5′′-(4-chlorobenzylidene)-4′-(4-chlorophenyl)-1′-methyl-2,4′′-dioxodispiro[indoline-3,2′-pyrrolidine-3′,3′′-piperidin]-1′′-yl]phosphonate]	3.08 ± 0.165	3.08	2.6	83.7	51.74 ± 1.5	74.0	21.65 ± 3.1	94.4	18.25 ± 0.6	8.15 ± 0.675	53.5 ± 2.8	79.6	52.70 ± 0.7	4.15 ± 0.288	2.0	51.5 ± 3.1	1.06	6.35 ± 0.17	1.3	76.3	potency fold of the standard drug 5-fluorouracil ([1]; HCT116, ratio of IC50): 6.6 fold; potency fold of the standard drug sunitinib ([1]; HCT116, ratio of IC50): 3.1 fold; TNF-α pg/mL (± SEM) PaCa2 (TNF-α [9]): 26.5 ± 0.7 pg/mL; TNF-α inhibition fold of the standard ibuprofen (TNF-α [10]; 10 μM): 3.6 fold; TNF-α inhibition fold of the standard indomethacin (TNF-α [10]; 10 μM): 1.9 fold; TNF-α % inhibition HCT116 (TNF-α [10]): 80.7%; TNF-α pg/mL (± SEM) HCT116 (TNF-α [10]): 18.45 ± 1.1 pg/mL; IC50 [11]: 4.07 ± 0.054 µM; SI (selectivity index) MCF7 [11]: 2.0
CCOP(=O)(OCC)N1C/C(=C\c2cccs2)C(=O)C2(C1)C(c1cccs1)CN(C)C21C(=O)Nc2ccccc21 (stereo not shown) [Compound 17q, Diethyl (E)-[1′-methyl-2,4′′-dioxo-4′-(thiophen-2-yl)-5′′-(thiophen-2-ylmethylene)dispiro[indoline-3,2′-pyrrolidine-3′,3′′-piperidin]-1′′-yl]phosphonate]	11.8 ± 0.4	11.8	2.3	58.4	132.30 ± 0.9	3.1	80.67 ± 2.8	58.5	135.70 ± 1.7	27.2 ± 0.813	61.3 ± 1.5	43.7	145.70 ± 1.9	24.51 ± 0.204	1.1	62.1 ± 3.1	0.93	13.4 ± 0.325	2.0	17.9	1/(observed property) ([8]; 1/observed IC50 (μM), PaCa2): 0.07485; TNF-α pg/mL (± SEM) PaCa2 (TNF-α [9]): 91.8 ± 2.7 pg/mL; TNF-α % inhibition HCT116 (TNF-α [10]): 12.0%; TNF-α pg/mL (± SEM) HCT116 (TNF-α [10]): 84.26 ± 0.8 pg/mL; IC50 [11]: 9.13 ± 0.314 µM; SI (selectivity index) MCF7 [11]: 3.0
